Key:
[1] = tested on: AsPC-1 cells; experiment: AsPC-1 cell proliferation assay (CellTiter Glo); type: cell-based; conditions: 6 days
Description: ASPC-1 and PK-59 cellular assays ASPC-1 (ATCC cat. CRL-1682) and PK-59 (Nanjing Cobioer, Cat. No. CBP61184) were used in KRAS cellular degradation, pERK inhibition and proliferation assays. The two cell lines were maintained following vendor's instructions. For monitoring KRAS (G12D) cellular degradation and pERK biomarker inhibition, cells were seeded into a 96-well plate with 22,000 and 16,000 cells/well for assays in ASPC-1 and PK-59, respectively. Cells were incubated at 37° C. with 5% CO2 and cell density was monitored until ^~90% confluency was reached. Compounds were serially diluted at a 1:3 ratio and dispensed into each well at final concentrations ranging from […] to 1.5 nM. After incubation for 24 hours, the culture media were removed and the cells were subjected to fixation, permeabilization and blocking (Intercept blocking buffer, Li-cor). For KRAS (G12D) degradation, the cells were treated with primary antibody (KRAS G12D antibody, Cell Signaling Technologies, Cat. No. CST14429) and for β-actin (β-actin mAb, Beyotime, Cat. No. AF-5001), and followed by secondary antibodies, Anti-rabbit IgG (H+L) (DyLight™ 800 4×PEG Conjugate) or IRDye® 680RD Goat anti-Mouse IgG. For pERK inhibition assay, cells were treated with primary antibodies for pERK (Phospho-p44/42 MAPK (Erk1/2) (Thr202/Tyr204) (D13.14.4E) XP® Rabbit mAb, Cell Signaling Technologies, Cat. No. CST-4370) and β-actin (β-actin mAb, Beyotime, Cat. No. AF-5001), and followed by secondary antibodies, Anti-rabbit IgG (H+L) (DyLight™ 800 4×PEG Conjugate) or IRDye® 680RD Goat anti-Mouse IgG. Fluorescence signals were read on Odyssey CLX instrument. For cell proliferation assays, cells were seeded into a 96-well plate at 3,500 and 800 cells/well for assays in ASPC-1 and PK-59, respectively. Cells were incubated at 37° C. with 5% CO2 for overnight. Compounds were serially diluted at a 1:3 ratio and dispensed into each well at final concentrations ranging from […] to 1.5 nM. After incubation for 6 days, cell viability reagent (CellTiter Glo, Promega, Cat. No. G7573) was added to each well and luminescence was recorded on Molecular Devices Spectramax iD3 instrument. IC50, half-maximal inhibitory concentration for pERK inhibition or cell proliferation, and DC50, half-maximal degradation concentration in KRAS (G12D) cellular degradation were determined by fitting the corresponding dose response curves using GraphPad Prism software.
Wherein “A” means the value <10 nM, “B” means 10 nM<the value <100 nM, “C” means 100 nM<the value <1000 nM, and “D” means the value >1000 nM, in which, the value means the value of DC50 or IC50. NT means not tested.

[2] = biological target: T1, KRAS (G12D) (Homo sapiens, UniProt P01116, G12D); experiment: KRAS (G12D) cellular degradation assay in AsPC-1 cells; type: cell-based; conditions: 24 hours, antibody fluorescence (Odyssey CLX), DC50 half-maximal degradation concentration
T1 construct: in-cell western with KRAS G12D antibody after 24 h
T1 sequence (P01116 1-188 isoform P01116-2 G12D): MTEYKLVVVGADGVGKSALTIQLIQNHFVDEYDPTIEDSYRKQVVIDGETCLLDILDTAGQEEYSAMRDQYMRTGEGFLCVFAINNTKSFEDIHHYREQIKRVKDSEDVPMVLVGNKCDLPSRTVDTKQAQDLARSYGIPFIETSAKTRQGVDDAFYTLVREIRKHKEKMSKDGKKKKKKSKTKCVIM
In short: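 Proliferation IC50 comes from CellTiter Glo luminescence after 6 days' exposure of AsPC-1 (3,500 cells/well) to 1:3 dilutions from […] to 1.5 nM. KRAS G12D DC50 derives from in-cell immunofluorescence normalised to β-actin after 24 h treatment of near-confluent AsPC-1 cells over the same range.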

| Compound | IC50 ([1]; Homo sapiens, ASPC1, 144 h) [nM] | DC50 [2] [nM] | IC50 [1] [nM] |
| --- | --- | --- | --- |
| CCn1nccc1-c1ccc([C@H](CO)NC(=O)[C@@H]2C[C@@H](O)CN2C(=O)[C@H](C(C)C)n2cc(-c3ccc(COc4c(-c5c(C)c(F)cc6[nH]ncc56)c(C5CC5)cc5c(N6CCCNCC6)nc(OC[C@H](C)OC)nc45)cc3)nn2)cc1 [Example 107, (2S,4R)-1-((2S)-2-(4-(4-(((6-cyclopropyl-4-(1,4-diazepan-1-yl)-7-(6-fluoro-5-methyl-1H-indazol-4-yl)-2-((S)-2-methoxypropoxy)quinazolin-8-yl)oxy)methyl)phenyl)-1H-1,2,3-triazol-1-yl)-3-methylbutanoyl)-N—((R)-1-(4-(1-ethyl-1H-pyrazol-5-yl)phenyl)-2-hydroxyethyl)-4-hydroxypyrrolidine-2-carboxamide] | < 10 | < 10 | – |
| CCn1nccc1-c1ccc([C@H](CO)NC(=O)[C@@H]2C[C@@H](O)CN2C(=O)[C@H](C(C)C)n2cc(-c3ccc(COc4c(-c5c(C)c(F)cc6[nH]ncc56)c(C5CC5)cc5c(N6CC7CCC(C6)N7)nc(OC[C@H](C)OC)nc45)cc3)nn2)cc1 (single isomer, unassigned) [Example 9] | – | 10 to 100 | > 1000 |
| CCn1nccc1-c1ccc([C@@H](NC(=O)[C@@H]2C[C@@H](O)CN2C(=O)[C@H](C(C)C)n2cc(-c3ccc(COc4c(-c5c(C)c(F)cc6[nH]ncc56)c(C5CC5)cc5c(N6C[C@@H]7C[C@H]6CN7)nc(O[C@H]6C[C@H](OC)C6)nc45)cc3)nn2)[C@H](C)O)cn1 [Example 193, (2S,4R)-1-((2S)-2-(4-(4-(((4-((1S,4S)-2,5-diazabicyclo[2.2.1]heptan-2-yl)-6-cyclopropyl-7-(6-fluoro-5-methyl-1H-indazol-4-yl)-2-((1r,3S)-3-methoxycyclobutoxy)quinazolin-8-yl)oxy)methyl)phenyl)-1H-1,2,3-triazol-1-yl)-3-methylbutanoyl)-N-((1R,2S)-1-(6-(1-ethyl-1H-pyrazol-5-yl)pyridin-3-yl)-2-hydroxypropyl)-4-hydroxypyrrolidine-2-carboxamide] | < 10 | 10 to 100 | – |
| CO[C@@H](C)COc1nc(N2C[C@@H]3C[C@H]2CN3)c2cc(C3CC3)c(-c3c(C)c(F)cc4[nH]ncc34)c(OCc3ccc(-c4cn([C@H](C(=O)N5C[C@H](O)C[C@H]5C(=O)N[C@H](C#Cc5cccc(F)c5Cl)CO)C(C)C)nn4)cc3)c2n1 [Example 98, (2S,4R)-1-((2S)-2-(4-(4-(((4-((1S,4S)-2,5-diazabicyclo[2.2.1]heptan-2-yl)-6-cyclopropyl-7-(6-fluoro-5-methyl-1H-indazol-4-yl)-2-((S)-2-methoxypropoxy)quinazolin-8-yl)oxy)methyl)phenyl)-1H-1,2,3-triazol-1-yl)-3-methylbutanoyl)-N—((R)-4-(2-chloro-3-fluorophenyl)-1-hydroxybut-3-yn-2-yl)-4-hydroxypyrrolidine-2-carboxamide] | < 10 | 10 to 100 | – |
| CCn1nccc1-c1ccc([C@@H](NC(=O)[C@@H]2C[C@@H](O)CN2C(=O)[C@H](C(C)C)n2cc(-c3ccc(COc4c(-c5c(C)c(F)cc6[nH]ncc56)c(C5CC5)cc5c(N6C[C@@H]7C[C@H]6CN7)nc(O[C@H]6C[C@H](OC)C6)nc45)cc3)nn2)[C@H](C)O)c2c1CC2 [Example 147, (2S,4R)-1-((2S)-2-(4-(4-(((4-((1S,4S)-2,5-diazabicyclo[2.2.1]heptan-2-yl)-6-cyclopropyl-7-(6-fluoro-5-methyl-1H-indazol-4-yl)-2-((1r,3S)-3-methoxycyclobutoxy)quinazolin-8-yl)oxy)methyl)phenyl)-1H-1,2,3-triazol-1-yl)-3-methylbutanoyl)-N-((1R,2S)-1-(5-(1-ethyl-1H-pyrazol-5-yl)bicyclo[4.2.0]octa-1(6),2,4-trien-2-yl)-2-hydroxypropyl)-4-hydroxypyrrolidine-2-carboxamide] | < 10 | < 10 | – |
| CCn1nccc1C#CC(CO)NC(=O)[C@@H]1C[C@@H](O)CN1C(=O)[C@H](C(C)C)n1cc(-c2ccc(COc3c(-c4c(C)c(F)cc5[nH]ncc45)c(C4CC4)cc4c(N5C[C@@H]6C[C@H]5CN6)nc(OC[C@H](C)OC)nc34)cc2)nn1 (stereo in doubt) [Example 34, (2S,4R)-1-((2S)-2-(4-(4-(((4-((1S,4S)-2,5-diazabicyclo[2.2.1]heptan-2-yl)-6-cyclopropyl-7-(6-fluoro-5-methyl-1H-indazol-4-yl)-2-((S)-2-methoxypropoxy)quinazolin-8-yl)oxy)methyl)phenyl)-1H-1,2,3-triazol-1-yl)-3-methylbutanoyl)-N—((R)-4-(1-ethyl-1H-pyrazol-5-yl)-1-hydroxybut-3-yn-2-yl)-4-hydroxypyrrolidine-2-carboxamide] | < 10 | < 10 | – |

Other lines, results leading:

| IC50 ([1]; Homo sapiens, ASPC1, 144 h) [nM] | DC50 [2] [nM] | IC50 [1] [nM] | Compound |
| --- | --- | --- | --- |
| < 10 | < 10 | – | Cc1ncsc1-c1ccc([C@H](CO)NC(=O)[C@@H]2C[C@@H](O)CN2C(=O)[C@H](C(C)C)n2cc(-c3ccc(COc4c(-c5c(C)c(F)cc6[nH]ncc56)c(C5CC5)cc5c(N6C[C@@H]7C[C@H]6CN7)nc(OC6CC7COCC7C6)nc45)cc3)nn2)cc1 (stereo partly drawn) [Example 93, (2S,4R)-1-((2S)-2-(4-(4-(((4-((1S,4S)-2,5-diazabicyclo[2.2.1]heptan-2-yl)-6-cyclopropyl-7-(6-fluoro-5-methyl-1H-indazol-4-yl)-2-((hexahydro-1H-cyclopenta[c]furan-5-yl)oxy)quinazolin-8-yl)oxy)methyl)phenyl)-1H-1,2,3-triazol-1-yl)-3-methylbutanoyl)-4-hydroxy-N—((R)-2-hydroxy-1-(4-(4-methylthiazol-5-yl)phenyl)ethyl)pyrrolidine-2-carboxamide] |
| 10 to 100 | 10 to 100 | – | CCn1nccc1-c1ccc([C@H](CO)NC(=O)[C@@H]2C[C@@H](O)CN2C(=O)[C@H](C(C)C)n2cc(-c3ccc(COc4c(-c5c(C)c(F)cc6[nH]ncc56)c(C5CC5)cc5c(N6C[C@H]7C[C@@H]6CN7)nc(OC6CCOCC6)nc45)cc3)nn2)cc1 (stereo in doubt) [Example 10, (2S,4R)-1-((2S)-2-(4-(4-(((4-((1R,4R)-2,5-diazabicyclo[2.2.1]heptan-2-yl)-6-cyclopropyl-7-(6-fluoro-5-methyl-1H-indazol-4-yl)-2-((tetrahydro-2H-pyran-4-yl)oxy)quinazolin-8-yl)oxy)methyl)phenyl)-1H-1,2,3-triazol-1-yl)-3-methylbutanoyl)-N—((R)-1-(4-(1-ethyl-1H-pyrazol-5-yl)phenyl)-2-hydroxyethyl)-4-hydroxypyrrolidine-2-carboxamide] |
| < 10 | < 10 | – | Cc1ncsc1-c1ccc([C@H](CO)NC(=O)[C@@H]2C[C@@H](O)CN2C(=O)[C@H](C(C)C)n2cc(-c3ccc(COc4c(-c5c(C)c(F)cc6[nH]ncc56)c(C5CC5)cc5c(N6C[C@@H]7C[C@H]6CN7)nc(OC6CC7(COC7)C6)nc45)cc3)nn2)cc1 [Example 129, (2S,4R)-1-((2S)-2-(4-(4-(((2-((2-oxaspiro[3.3]heptan-6-yl)oxy)-4-((1S,4S)-2,5-diazabicyclo[2.2.1]heptan-2-yl)-6-cyclopropyl-7-(6-fluoro-5-methyl-1H-indazol-4-yl)quinazolin-8-yl)oxy)methyl)phenyl)-1H-1,2,3-triazol-1-yl)-3-methylbutanoyl)-4-hydroxy-N—((R)-2-hydroxy-1-(4-(4-methylthiazol-5-yl)phenyl)ethyl)pyrrolidine-2-carboxamide] |
| < 10 | < 10 | – | CCn1nccc1-c1ccc([C@H](CO)NC(=O)[C@@H]2C[C@@H](O)CN2C(=O)[C@H](C(C)C)n2cc(-c3ccc(COc4c(-c5c(C)c(F)cc6[nH]ncc56)c(C5CC5)cc5c(N6C[C@@H]7C[C@H]6CN7)nc(OC6CC7(CCOC7)C6)nc45)cc3)nn2)cc1 (stereo partly drawn) [Example 101, (2S,4R)-1-((2S)-2-(4-(4-(((2-((6-oxaspiro[3.4]octan-2-yl)oxy)-4-((1S,4S)-2,5-diazabicyclo[2.2.1]heptan-2-yl)-6-cyclopropyl-7-(6-fluoro-5-methyl-1H-indazol-4-yl)quinazolin-8-yl)oxy)methyl)phenyl)-1H-1,2,3-triazol-1-yl)-3-methylbutanoyl)-N—((R)-1-(4-(1-ethyl-1H-pyrazol-5-yl)phenyl)-2-hydroxyethyl)-4-hydroxypyrrolidine-2-carboxamide] |

From US20260295053A1, “COMPOUNDS FOR DEGRADATION AND INHIBITION OF KRAS (G12D) PROTEIN” (Shenzhen Ionova Life Science Co., Ltd., priority 2023, published 2026)
